Assay results from US20110144040A1, “Acteoside and acteoside-rich plant extracts for increasing athletic performance in humans” (MN Intellectual Property Corp, LLC, priority 2009, published 2011).

What was measured:
[1] = test system: athletic performance in humans; assay: oral acteoside supplementation for athletic performance in exercising humans; type: in vivo, human; settings: peroral, used according to recommended protocols
Description: Athletic performance is defined as any sporting activity where muscle strength and/or endurance are integral to individual performance, and is inclusive of both aerobic and anaerobic metabolic conditions. This includes active athletic competition, such as baseball, football, running, or Track & Field. It also includes any exercise activity designed to improve physical performance, directly or indirectly, via an improvement in muscle protein content (size), strength, and/or endurance, such as resistance training (circuit equipment, weight training), aerobics, Pilates, and/or calisthenics. Any improvement in athletic performance must include objective increases in speed, strength, muscle size (protein content), and/or endurance. It may also involve improved recovery from fatigue following exercise or athletic competition.
This includes an ability to increase muscle strength, muscle power, endurance, and muscle protein content (size), as well as to reduce fatigue and facilitate recovery following intense exercise or athletic competition. The benefits appear almost immediately in some cases, but are more likely to occur after several weeks of regular use of acteoside or extracts containing acteoside. […]
During the course of developing this invention, an effective oral daily dosage of acteoside to improve athletic performance was determined to be between 25 mg to 2,500 mg. […]

[2] = test system: prostaglandin biosynthesis; settings: Arch Pharm Res 2006 29(6), 508-13; cited from earlier work
[3] = test system: free-radical induced oxidative stress; settings: J Pharm Pharmacol 2004 56(6) 743-8; cited from earlier work

C[C@@H]1O[C@@H](O[C@@H]2[C@@H](O)[C@H](OCCc3ccc(O)c(O)c3)O[C@H](CO)[C@H]2OC(=O)/C=C/c2ccc(O)c(O)c2)[C@H](O)[C@H](O)[C@H]1O [acteoside]
improving athletic performance [1]: effective in-vivo peroral agents for improving athletic performance | inhibition of prostaglandin biosynthesis [2]: strong inhibitor | inhibition of free-radical induced oxidative stress [3]: strong inhibitor
